Earlier results as cited in patent publication US20230357798A1, “GENE CORRECTION FOR X-CGD IN HEMATOPOIETIC STEM AND PROGENITOR CELLS” (THE BOARD OF TRUSTEES OF THE LELAND STANFORD JUNIOR …, priority 2020, published 2023).
Where two headings read alike, the source gives them in different places.

Columns and labels:
CD34^+ HSPCs [1] = details: for cell viability relative to edited controls: single agent, CD34+ HSPCs
CD34^+ HSPCs [2] = system: CD34^+ HSPCs

Row | SMILES | HSPC viability (CD34^+ HSPCs [1]; combined with Trichostatin A and NSC 15520) [%] | cell viability relative to edited controls (CD34^+ HSPCs [1]) [%] | enhancement of HDR (CD34^+ HSPCs [2]; combined with Trichostatin A and NSC 15520, CRISPR/Cpf1, ssODN donor) [fold] | enhancement of HDR (CD34^+ HSPCs [2]; single agent, CD34+ HSPCs) [fold]
1 | O=c1cc(N2CCOCC2)oc2c1ccc1ccccc12 [NU7026] | 65 | ~80 | 2.6 | 1.7
2 | O=c1cc(N2CCOCC2)oc2c(-c3cccc4c3sc3ccccc34)cccc12 [NU7441] |  | ~65 |  | 2
